Assay results from ChEMBL document CHEMBL1201862, “PubChem BioAssay data set” (2004).
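Exposure lasted 48 hours, with cells grown in 96-well plates and compounds tested at five concentrations. Here, GI50 denotes the concentration required for 50% inhibition of growth.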 Active and inactive are the calls of the source. No stated cut-off is given here; in the data, active = GI50 up to about 1.1 µM and inactive = higher.

Assays:
Assay in all cases: NCI tumour cell line growth inhibition, 48 h
A549 = system: A549
RXF 631 = system: RXF 631
NCI-H23 = system: NCI-H23
KM-20L2 = system: KM-20L2
Malme-3M = system: Malme-3M
SW-620 = system: SW-620
786-0 = system: 786-0
SK-MEL-2 = system: SK-MEL-2
SNB-19 = system: SNB-19
HOP-18 = system: HOP-18
LXFL 529 = system: LXFL 529
CAKI-1 = system: CAKI-1
OVCAR-4 = system: OVCAR-4
RXF 393 = system: RXF 393
DLD-1 = system: DLD-1
SK-OV-3 = system: SK-OV-3
M14 = system: M14
DMS-114 = system: DMS-114
SK-MEL-28 = system: SK-MEL-28
HOP-62 = system: HOP-62
A498 = system: A498
U-251 = system: U-251
XF498 = system: XF498
RPMI-8226 = system: RPMI-8226
SNB-75 = system: SNB-75
UACC-62 = system: UACC-62
OVCAR-8 = system: OVCAR-8
IGROV-1 = system: IGROV-1
DMS-273 = system: DMS-273
SN12C = system: SN12C
OVCAR-3 = system: OVCAR-3
NCI-H460 = system: NCI-H460
NCI-H226 = system: NCI-H226
HT-29 = system: HT-29
HCT-15 = system: HCT-15
TK-10 = system: TK-10
UACC-257 = system: UACC-257
NCI-H522 = system: NCI-H522
CCRF-CEM = system: CCRF-CEM
HOP-92 = system: HOP-92
SK-MEL-5 = system: SK-MEL-5
LOX IMVI = system: LOX IMVI
UO-31 = system: UO-31
K562 = system: K562
MOLT-4 = system: MOLT-4
HL-60 = system: HL-60
ACHN = system: ACHN
KM12 = system: KM12
HCT-116 = system: HCT-116
COLO 205 = system: COLO 205
M19-MEL = system: M19-MEL
SF-268 = system: SF-268

COc1cccc(C(=O)C2C(=O)N(C)CCc3ccccc32)c1OC (configuration not stated)
GI50 (A549): > 100 µM (inactive)
GI50 (RXF 631): > 100 µM (inactive)
GI50 (NCI-H23): > 100 µM (inactive)
GI50 (KM-20L2): > 100 µM (inactive)
GI50 (Malme-3M): > 100 µM (inactive)
GI50 (SW-620): > 100 µM (inactive)
GI50 (786-0): > 100 µM (inactive)
GI50 (SK-MEL-2): > 100 µM (inactive)
GI50 (SNB-19): > 100 µM (inactive)
GI50 (HOP-18): > 100 µM (inactive)
GI50 (LXFL 529): > 100 µM (inactive)
GI50 (CAKI-1): > 100 µM (inactive)
GI50 (OVCAR-4): > 100 µM (inactive)
GI50 (RXF 393): > 100 µM (inactive)
GI50 (DLD-1): > 100 µM (inactive)
GI50 (SK-OV-3): > 100 µM (inactive)
GI50 (M14): > 100 µM (inactive)
GI50 (DMS-114): > 100 µM (inactive)
GI50 (SK-MEL-28): > 100 µM (inactive)
GI50 (HOP-62): > 100 µM (inactive)
GI50 (A498): > 100 µM (inactive)
GI50 (U-251): > 100 µM (inactive)
GI50 (XF498): > 100 µM (inactive)
GI50 (RPMI-8226): > 100 µM (inactive)
GI50 (SNB-75): > 100 µM (inactive)
GI50 (UACC-62): > 100 µM (inactive)
GI50 (OVCAR-8): > 100 µM (inactive)
GI50 (IGROV-1): > 100 µM (inactive)
GI50 (DMS-273): > 100 µM (inactive)
GI50 (SN12C): > 100 µM (inactive)
GI50 (OVCAR-3): > 100 µM (inactive)
GI50 (NCI-H460): > 100 µM (inactive)
GI50 (NCI-H226): > 100 µM (inactive)
GI50 (HT-29): > 100 µM (inactive)
GI50 (HCT-15): > 100 µM
GI50 (TK-10): > 100 µM (inactive)
GI50 (UACC-257): > 100 µM (inactive)
GI50 (NCI-H522): > 100 µM (inactive)
GI50 (CCRF-CEM): > 100 µM (inactive)
GI50 (HOP-92): > 100 µM (inactive)
GI50 (SK-MEL-5): > 100 µM (inactive)
GI50 (LOX IMVI): > 100 µM (inactive)
GI50 (UO-31): > 100 µM (inactive)
GI50 (K562): > 100 µM (inactive)
GI50 (MOLT-4): > 100 µM (inactive)
GI50 (HL-60): > 100 µM (inactive)
GI50 (ACHN): > 100 µM (inactive)
GI50 (KM12): > 100 µM (inactive)
GI50 (HCT-116): > 100 µM (inactive)
GI50 (COLO 205): > 100 µM (inactive)
GI50 (M19-MEL): > 100 µM (inactive)
GI50 (SF-268): > 10 µM (inactive)
